Measurements as given in patent US4818761A, “2-(4-pyridylaminomethyl)-benzimidazole derivatives having antiviral activity” (priority 1986, dated 1989).
Converted amounts (≈) assume the structure as drawn.

Test system: enterovirus type 70 (EV70)
Experiment: Inhibition of EV70 plaque formation in LLC-MK2 cells
Assay type: cell-based
Settings: CI = CD50 (LLC-MK2)/IC50 (plaque)

SMILES	CI EV70 (C)/(A)
Brc1ccc2[nH]c(CNc3ccncc3)nc2c1 [I, 2-(4-pyridylaminomethyl)-5-(6)-bromobenzimidazole]	101
Fc1ccc2[nH]c(CNc3ccncc3)nc2c1 [II]	126
CCOc1ccc2[nH]c(CNc3ccncc3)nc2c1 [IV]	> 3
Clc1ccc(-n2c(CNc3ccncc3)nc3ccccc32)cc1 [LIX]	> 833
Cl.Fc1cccc(-n2c(CNc3ccncc3)nc3ccccc32)c1 [LVIII, 1-(3-fluorophenyl)-2-(4-pyridylaminomethyl)benzimidazole hydrochloride]	> 200
Fc1ccccc1-n1c(CNc2ccncc2)nc2ccccc21 [LVII]	83
CC(=O)OCCOCn1c(CNc2ccncc2)nc2ccccc21 [LV]	> 63
Cc1ccc(-n2c(CNc3ccncc3)nc3ccccc32)cc1F [LXXI]	> 25
Cc1ccc(-n2c(CNc3ccncc3)nc3ccccc32)cc1C [LXX]	> 15
Brc1ccc(-n2c(CNc3ccncc3)nc3ccccc32)cc1 [LX]	> 53
CC(C)c1ccc2[nH]c(CNc3ccncc3)nc2c1 [VI]	> 476
Clc1ccc2nc(CNc3ccncc3)n(-c3ccccc3)c2c1 [XLVII]	> 130
Cc1cc2nc(CNc3ccncc3)[nH]c2cc1Cl [XXIX]	118

Same assay, conditions: Enterovirus D; plaque reduction, LLC-MK2 cells, 33° C.

SMILES	IC50 [µg/mL]
Brc1ccc2[nH]c(CNc3ccncc3)nc2c1 [I, 2-(4-pyridylaminomethyl)-5-(6)-bromobenzimidazole]	3.1 (≈ 10.2 µM)
Fc1ccc2[nH]c(CNc3ccncc3)nc2c1 [II]	1.4 (≈ 5.78 µM)
CCOc1ccc2[nH]c(CNc3ccncc3)nc2c1 [IV]	39 (≈ 145 µM)
Clc1ccc(-n2c(CNc3ccncc3)nc3ccccc32)cc1 [LIX]	1.2 (≈ 3.58 µM)
Cl.Fc1cccc(-n2c(CNc3ccncc3)nc3ccccc32)c1 [LVIII, 1-(3-fluorophenyl)-2-(4-pyridylaminomethyl)benzimidazole hydrochloride]	5
Fc1ccccc1-n1c(CNc2ccncc2)nc2ccccc21 [LVII]	24.1 (≈ 75.7 µM)
CC(=O)OCCOCn1c(CNc2ccncc2)nc2ccccc21 [LV]	1.6 (≈ 4.7 µM)
Cc1ccc(-n2c(CNc3ccncc3)nc3ccccc32)cc1F [LXXI]	4 (≈ 12 µM)
Cc1ccc(-n2c(CNc3ccncc3)nc3ccccc32)cc1C [LXX]	6.5 (≈ 19.8 µM)
Brc1ccc(-n2c(CNc3ccncc3)nc3ccccc32)cc1 [LX]	1.9 (≈ 5.01 µM)
CC(C)c1ccc2[nH]c(CNc3ccncc3)nc2c1 [VI]	2.1 (≈ 7.88 µM)
Clc1ccc2nc(CNc3ccncc3)n(-c3ccccc3)c2c1 [XLVII]	2.3 (≈ 6.87 µM)
Cc1cc2nc(CNc3ccncc3)[nH]c2cc1Cl [XXIX]	1.5 (≈ 5.5 µM)

Test system: poliovirus type 2 (Polio2)
Experiment: microbe, parasite or virus in culture
Assay type: cell-based
Settings: CI = CD50 (LLC-MK2)/IC50 (plaque)

SMILES	CI Polio2 (C)/(A)
Clc1ccc(-n2c(CNc3ccncc3)nc3ccccc32)cc1 [LIX]	> 111
CC(=O)OCCOCn1c(CNc2ccncc2)nc2ccccc21 [LV]	> 6
Cc1cc2nc(CNc3ccncc3)[nH]c2cc1Cl [XXIX]	3

Same assay, conditions: Enterovirus C, LLC-MK2, read-out: IC50 Polio2

SMILES	IC50 [µg/mL]
Brc1ccc2[nH]c(CNc3ccncc3)nc2c1 [I, 2-(4-pyridylaminomethyl)-5-(6)-bromobenzimidazole]	> 25
Fc1ccc2[nH]c(CNc3ccncc3)nc2c1 [II]	> 25
CCOc1ccc2[nH]c(CNc3ccncc3)nc2c1 [IV]	460 (≈ 1710 µM)
Clc1ccc(-n2c(CNc3ccncc3)nc3ccccc32)cc1 [LIX]	9.6 (≈ 28.7 µM)
Cl.Fc1cccc(-n2c(CNc3ccncc3)nc3ccccc32)c1 [LVIII, 1-(3-fluorophenyl)-2-(4-pyridylaminomethyl)benzimidazole hydrochloride]	> 100
Fc1ccccc1-n1c(CNc2ccncc2)nc2ccccc21 [LVII]	> 100
CC(=O)OCCOCn1c(CNc2ccncc2)nc2ccccc21 [LV]	17.6 (≈ 51.7 µM)
Cc1ccc(-n2c(CNc3ccncc3)nc3ccccc32)cc1F [LXXI]	> 50
Cc1ccc(-n2c(CNc3ccncc3)nc3ccccc32)cc1C [LXX]	> 50
Brc1ccc(-n2c(CNc3ccncc3)nc3ccccc32)cc1 [LX]	> 50
CC(C)c1ccc2[nH]c(CNc3ccncc3)nc2c1 [VI]	> 100
Clc1ccc2nc(CNc3ccncc3)n(-c3ccccc3)c2c1 [XLVII]	> 100
Cc1cc2nc(CNc3ccncc3)[nH]c2cc1Cl [XXIX]	52 (≈ 191 µM)

Test system: coxsackievirus type B4 (CB4)
Experiment: Inhibition of CB4 plaque formation in LLC-MK2 cells
Assay type: cell-based
Settings: CI = CD50 (LLC-MK2)/IC50 (plaque)

SMILES	CI CB4 (C)/(A)
Brc1ccc2[nH]c(CNc3ccncc3)nc2c1 [I, 2-(4-pyridylaminomethyl)-5-(6)-bromobenzimidazole]	17
Fc1ccc2[nH]c(CNc3ccncc3)nc2c1 [II]	29
CCOc1ccc2[nH]c(CNc3ccncc3)nc2c1 [IV]	> 1
Clc1ccc(-n2c(CNc3ccncc3)nc3ccccc32)cc1 [LIX]	> 1,176
Cl.Fc1cccc(-n2c(CNc3ccncc3)nc3ccccc32)c1 [LVIII, 1-(3-fluorophenyl)-2-(4-pyridylaminomethyl)benzimidazole hydrochloride]	> 278
Fc1ccccc1-n1c(CNc2ccncc2)nc2ccccc21 [LVII]	233
CC(=O)OCCOCn1c(CNc2ccncc2)nc2ccccc21 [LV]	8
Cc1ccc(-n2c(CNc3ccncc3)nc3ccccc32)cc1F [LXXI]	> 31
Cc1ccc(-n2c(CNc3ccncc3)nc3ccccc32)cc1C [LXX]	> 6
Brc1ccc(-n2c(CNc3ccncc3)nc3ccccc32)cc1 [LX]	> 100
CC(C)c1ccc2[nH]c(CNc3ccncc3)nc2c1 [VI]	> 15
Clc1ccc2nc(CNc3ccncc3)n(-c3ccccc3)c2c1 [XLVII]	> 250
Cc1cc2nc(CNc3ccncc3)[nH]c2cc1Cl [XXIX]	15

Same assay, conditions: Coxsackievirus; plaque reduction, LLC-MK2 cells, 37° C.

SMILES	IC50 [µg/mL]
Brc1ccc2[nH]c(CNc3ccncc3)nc2c1 [I, 2-(4-pyridylaminomethyl)-5-(6)-bromobenzimidazole]	18 (≈ 59.4 µM)
Fc1ccc2[nH]c(CNc3ccncc3)nc2c1 [II]	6 (≈ 24.8 µM)
CCOc1ccc2[nH]c(CNc3ccncc3)nc2c1 [IV]	93 (≈ 347 µM)
Clc1ccc(-n2c(CNc3ccncc3)nc3ccccc32)cc1 [LIX]	0.85 (≈ 2.54 µM)
Cl.Fc1cccc(-n2c(CNc3ccncc3)nc3ccccc32)c1 [LVIII, 1-(3-fluorophenyl)-2-(4-pyridylaminomethyl)benzimidazole hydrochloride]	3.6
Fc1ccccc1-n1c(CNc2ccncc2)nc2ccccc21 [LVII]	8.6 (≈ 27 µM)
CC(=O)OCCOCn1c(CNc2ccncc2)nc2ccccc21 [LV]	11.9 (≈ 35 µM)
Cc1ccc(-n2c(CNc3ccncc3)nc3ccccc32)cc1F [LXXI]	3.2 (≈ 9.63 µM)
Cc1ccc(-n2c(CNc3ccncc3)nc3ccccc32)cc1C [LXX]	16 (≈ 48.7 µM)
Brc1ccc(-n2c(CNc3ccncc3)nc3ccccc32)cc1 [LX]	1 (≈ 2.64 µM)
CC(C)c1ccc2[nH]c(CNc3ccncc3)nc2c1 [VI]	69 (≈ 259 µM)
Clc1ccc2nc(CNc3ccncc3)n(-c3ccccc3)c2c1 [XLVII]	1.2 (≈ 3.58 µM)
Cc1cc2nc(CNc3ccncc3)[nH]c2cc1Cl [XXIX]	11.5 (≈ 42.2 µM)

Test system: rhinovirus type 14 (HRV14)
Experiment: Inhibition of HRV14 plaque formation in HeLa cells
Assay type: cell-based
Settings: CI = CD50 (HeLa)/IC50 (plaque)

SMILES	CI HRV14 (D)/(B)
Brc1ccc2[nH]c(CNc3ccncc3)nc2c1 [I, 2-(4-pyridylaminomethyl)-5-(6)-bromobenzimidazole]	3
Fc1ccc2[nH]c(CNc3ccncc3)nc2c1 [II]	4
Clc1ccc(-n2c(CNc3ccncc3)nc3ccccc32)cc1 [LIX]	> 4
CC(=O)OCCOCn1c(CNc2ccncc2)nc2ccccc21 [LV]	> 6
Cc1ccc(-n2c(CNc3ccncc3)nc3ccccc32)cc1F [LXXI]	> 2
Cc1ccc(-n2c(CNc3ccncc3)nc3ccccc32)cc1C [LXX]	> 2
Brc1ccc(-n2c(CNc3ccncc3)nc3ccccc32)cc1 [LX]	> 3
CC(C)c1ccc2[nH]c(CNc3ccncc3)nc2c1 [VI]	3
Clc1ccc2nc(CNc3ccncc3)n(-c3ccccc3)c2c1 [XLVII]	4
Cc1cc2nc(CNc3ccncc3)[nH]c2cc1Cl [XXIX]	15

Same assay, conditions: Enterovirus, HRV14; plaque reduction, HeLa cells, 33° C.

SMILES	IC50 [µg/mL]
Brc1ccc2[nH]c(CNc3ccncc3)nc2c1 [I, 2-(4-pyridylaminomethyl)-5-(6)-bromobenzimidazole]	5.8 (≈ 19.1 µM)
Fc1ccc2[nH]c(CNc3ccncc3)nc2c1 [II]	14.5 (≈ 59.9 µM)
Clc1ccc(-n2c(CNc3ccncc3)nc3ccccc32)cc1 [LIX]	25 (≈ 74.7 µM)
CC(=O)OCCOCn1c(CNc2ccncc2)nc2ccccc21 [LV]	15.6 (≈ 45.8 µM)
Cc1ccc(-n2c(CNc3ccncc3)nc3ccccc32)cc1F [LXXI]	49.7 (≈ 150 µM)
Cc1ccc(-n2c(CNc3ccncc3)nc3ccccc32)cc1C [LXX]	40.7 (≈ 124 µM)
Brc1ccc(-n2c(CNc3ccncc3)nc3ccccc32)cc1 [LX]	39.9 (≈ 105 µM)
CC(C)c1ccc2[nH]c(CNc3ccncc3)nc2c1 [VI]	16.5 (≈ 61.9 µM)
Clc1ccc2nc(CNc3ccncc3)n(-c3ccccc3)c2c1 [XLVII]	4.4 (≈ 13.1 µM)
Cc1cc2nc(CNc3ccncc3)[nH]c2cc1Cl [XXIX]	3.8 (≈ 13.9 µM)

Test system: rhinovirus type 14 (HRV14)
Experiment: Inhibition of HRV14 cytopathogenic effect (CPE) in HeLa cells
Assay type: cell-based
Settings: Enterovirus, HRV14; * Virus CPE inhibition assay, HeLa cells, 33° C.

SMILES	IC50 [µg/mL]
CCOc1ccc2[nH]c(CNc3ccncc3)nc2c1 [IV]	> 100
Cl.Fc1cccc(-n2c(CNc3ccncc3)nc3ccccc32)c1 [LVIII, 1-(3-fluorophenyl)-2-(4-pyridylaminomethyl)benzimidazole hydrochloride]	> 100
Fc1ccccc1-n1c(CNc2ccncc2)nc2ccccc21 [LVII]	> 100

Test system: not listed separately
Experiment: in vitro
Settings: monkey, llc-mk2 cells

SMILES	CC50 [µg/mL]
Brc1ccc2[nH]c(CNc3ccncc3)nc2c1 [I, 2-(4-pyridylaminomethyl)-5-(6)-bromobenzimidazole]	312 (≈ 1030 µM)
Fc1ccc2[nH]c(CNc3ccncc3)nc2c1 [II]	177 (≈ 730 µM)
CCOc1ccc2[nH]c(CNc3ccncc3)nc2c1 [IV]	> 100
Clc1ccc(-n2c(CNc3ccncc3)nc3ccccc32)cc1 [LIX]	> 1000
Cl.Fc1cccc(-n2c(CNc3ccncc3)nc3ccccc32)c1 [LVIII, 1-(3-fluorophenyl)-2-(4-pyridylaminomethyl)benzimidazole hydrochloride]	> 1000
Fc1ccccc1-n1c(CNc2ccncc2)nc2ccccc21 [LVII]	2000 (≈ 6280 µM)
CC(=O)OCCOCn1c(CNc2ccncc2)nc2ccccc21 [LV]	> 100
Cc1ccc(-n2c(CNc3ccncc3)nc3ccccc32)cc1F [LXXI]	> 100
Cc1ccc(-n2c(CNc3ccncc3)nc3ccccc32)cc1C [LXX]	> 100
Brc1ccc(-n2c(CNc3ccncc3)nc3ccccc32)cc1 [LX]	> 100
CC(C)c1ccc2[nH]c(CNc3ccncc3)nc2c1 [VI]	> 1000
Clc1ccc2nc(CNc3ccncc3)n(-c3ccccc3)c2c1 [XLVII]	> 300
Cc1cc2nc(CNc3ccncc3)[nH]c2cc1Cl [XXIX]	177 (≈ 648 µM)

Test system: not listed separately
Experiment: in vitro
Settings: human, hela cells

SMILES	CC50 [µg/mL]
Brc1ccc2[nH]c(CNc3ccncc3)nc2c1 [I, 2-(4-pyridylaminomethyl)-5-(6)-bromobenzimidazole]	17.8 (≈ 58.7 µM)
Fc1ccc2[nH]c(CNc3ccncc3)nc2c1 [II]	56.2 (≈ 232 µM)
CCOc1ccc2[nH]c(CNc3ccncc3)nc2c1 [IV]	> 100
Clc1ccc(-n2c(CNc3ccncc3)nc3ccccc32)cc1 [LIX]	> 100
Cl.Fc1cccc(-n2c(CNc3ccncc3)nc3ccccc32)c1 [LVIII, 1-(3-fluorophenyl)-2-(4-pyridylaminomethyl)benzimidazole hydrochloride]	> 100
Fc1ccccc1-n1c(CNc2ccncc2)nc2ccccc21 [LVII]	> 100
CC(=O)OCCOCn1c(CNc2ccncc2)nc2ccccc21 [LV]	> 100
Cc1ccc(-n2c(CNc3ccncc3)nc3ccccc32)cc1F [LXXI]	> 100
Cc1ccc(-n2c(CNc3ccncc3)nc3ccccc32)cc1C [LXX]	> 100
Brc1ccc(-n2c(CNc3ccncc3)nc3ccccc32)cc1 [LX]	> 100
CC(C)c1ccc2[nH]c(CNc3ccncc3)nc2c1 [VI]	56.2 (≈ 211 µM)
Clc1ccc2nc(CNc3ccncc3)n(-c3ccccc3)c2c1 [XLVII]	17.8 (≈ 53.2 µM)
Cc1cc2nc(CNc3ccncc3)[nH]c2cc1Cl [XXIX]	56.2 (≈ 206 µM)
